SMILES strings stand for the structures.

We go through 46 compounds from the Kinase Knowledgebase extract (Sharma et al. 2016).

The target of the experiment is MAPK14 (human) (UniProt Q16539). In words: Inhibition of MAPK14 Kinase Activity.
Chain of MAPK14 (human) (Q16539 whole entry, looked up): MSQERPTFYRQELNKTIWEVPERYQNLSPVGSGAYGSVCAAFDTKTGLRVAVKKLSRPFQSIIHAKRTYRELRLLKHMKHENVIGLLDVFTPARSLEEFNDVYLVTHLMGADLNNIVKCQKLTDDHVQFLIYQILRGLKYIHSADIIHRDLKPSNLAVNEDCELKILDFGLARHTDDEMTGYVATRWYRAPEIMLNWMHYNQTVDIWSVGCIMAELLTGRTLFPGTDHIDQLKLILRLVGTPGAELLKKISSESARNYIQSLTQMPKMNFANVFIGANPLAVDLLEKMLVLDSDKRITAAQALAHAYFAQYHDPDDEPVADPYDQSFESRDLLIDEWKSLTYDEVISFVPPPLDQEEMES
In the case of `C[C@H](O)Cn1c(=O)c(Oc2ccc(F)cc2F)cc2cnc(NC3CCCCC3)nc21`, the concentration for half-maximal inhibition (IC50) – broadly, the concentration that inhibits the measured activity by half – lay in the range of 1 to 100 nM.
In turn, `CC(O)Cn1c(=O)c(Oc2ccc(F)cc2F)cc2cnc(NC3CCOCC3)nc21` (stereo unspecified) yielded a 50% inhibitory concentration (IC50) of 1 to 100 nM.
For `C[C@H](O)Cn1c(=O)c(Oc2ccc(F)cc2F)cc2cnc(NC[C@@H](C)O)nc21` the value was 1 to 100 nM; for `CC(C)CNc1ncc2cc(Oc3ccc(F)cc3F)c(=O)n(C[C@@H](C)O)c2n1`, 1 to 100 nM.
For `C[C@@H](O)Cn1c(=O)c(Oc2ccc(F)cc2F)cc2cnc(NCC3CC3)nc21` the value was 1 to 100 nM; for `C[C@H](O)Cn1c(=O)c(Oc2ccc(F)cc2F)cc2cnc(N[C@@H](C)CO)nc21`, 1 to 100 nM.
For `C[C@H](Nc1ncc2cc(Oc3ccc(F)cc3F)c(=O)n(C[C@@H](C)O)c2n1)C(C)(C)O` the value was 1 to 100 nM.
`C[C@H](O)Cn1c(=O)c(Oc2ccc(F)cc2F)cc2cnc(NC3CC3)nc21` gave a concentration for half-maximal inhibition (IC50) of 1 to 100 nM.
In the case of `CC[C@@H](C)Nc1ncc2cc(Oc3ccc(F)cc3F)c(=O)n(C[C@@H](C)O)c2n1`, the IC50 lay within 1 to 100 nM.
For `CC(=O)Cn1c(=O)c(Oc2ccc(F)cc2F)cc2cnc(N[C@@H](C)CO)nc21` the value was 1 to 100 nM.
`C[C@H](O)CNc1ncc2cc(Oc3ccc(F)cc3F)c(=O)n(C[C@H](C)O)c2n1` returned a concentration for half-maximal inhibition (IC50) of 1 to 100 nM.
For `CC[C@H](C)Nc1ncc2cc(Oc3ccc(F)cc3F)c(=O)n(C[C@H](C)O)c2n1` the value was 1 to 100 nM.
Take `COC[C@H](C)Nc1ncc2cc(Oc3ccc(F)cc3F)c(=O)n(C[C@H](C)O)c2n1`: the IC50 fell in the range of 1 to 100 nM.
As for `C[C@@H](O)CNc1ncc2cc(Oc3ccc(F)cc3F)c(=O)n(C[C@@H](C)O)c2n1`, the IC50 lay within 1 to 100 nM.
For `C[C@H](O)Cn1c(=O)c(Oc2ccc(F)cc2F)cc2cnc(NC(CO)CO)nc21` the value was 1 to 100 nM.
For `CCNc1ncc2cc(Oc3ccc(F)cc3F)c(=O)n(C[C@@H](C)O)c2n1`, the IC50 was 1 to 100 nM.
For `C[C@H](O)Cn1c(=O)c(Oc2ccc(F)cc2F)cc2cnc(N[C@H](CO)[C@@H](C)O)nc21` the value was 1 to 100 nM; for `C[C@H](O)CNc1ncc2cc(Oc3ccc(F)cc3F)c(=O)n(C[C@@H](C)O)c2n1`, 1 to 100 nM; for `C[C@H](O)Cn1c(=O)c(Oc2ccc(F)cc2F)cc2cnc(N[C@H](CO)CCO)nc21`, 1 to 100 nM.
For `CC(C)Nc1ncc2cc(Oc3ccc(F)cc3F)c(=O)n(C[C@H](C)O)c2n1` the value was 1 to 100 nM; for `C[C@H](O)Cn1c(=O)c(Oc2ccc(F)cc2F)cc2cnc(NC3CCN(S(C)(=O)=O)CC3)nc21`, 1 to 100 nM.
For `C[C@H](O)Cn1c(=O)c(Oc2ccc(F)cc2F)cc2cnc(NC3CCCC3)nc21` the value was 1 to 100 nM; for `CC[C@@H](CO)Nc1ncc2cc(Oc3ccc(F)cc3F)c(=O)n(C[C@H](C)O)c2n1`, 1 to 100 nM.
Compound `C[C@@H](O)Cn1c(=O)c(Oc2ccc(F)cc2F)cc2cnc(NC(C)(C)CO)nc21` yielded an IC50 of 1 to 100 nM.
For `C[C@H](O)Cn1c(=O)c(Oc2ccc(F)cc2F)cc2cnc(N[C@H](C)CO)nc21` the value was 1 to 100 nM; for `C[C@H](O)Cn1c(=O)c(Oc2ccc(F)cc2F)cc2cnc(NC3CCOCC3)nc21`, 1 to 100 nM.
For `O=c1c(Oc2ccc(F)cc2F)cc2cnc(NC3CCOCC3)nc2n1CCO` the value was 1 to 100 nM; for `C[C@H](CO)Nc1ncc2cc(Oc3ccc(F)cc3F)c(=O)n(C[C@@H](C)O)c2n1`, 1 to 100 nM; for `CC[C@H](CO)Nc1ncc2cc(Oc3ccc(F)cc3F)c(=O)n(C[C@@H](C)O)c2n1`, 1 to 100 nM.
For `COCCC(CCOC)Nc1ncc2cc(Oc3ccc(F)cc3F)c(=O)n(C[C@H](C)O)c2n1` the value was 1 to 100 nM; for `C[C@H](O)Cn1c(=O)c(Oc2ccc(F)cc2F)cc2cnc(NCC(C)(C)C)nc21`, 1 to 100 nM.
Consider `C[C@@H](O)Cn1c(=O)c(Oc2ccc(F)cc2F)cc2cnc(NC3CCC3)nc21`, for which the IC50 fell in the range of 1 to 100 nM.
For `CC[C@H](CO)Nc1ncc2cc(Oc3ccc(F)cc3F)c(=O)n(C[C@H](C)O)c2n1` the value was 1 to 100 nM.
For `CC(=O)Cn1c(=O)c(Oc2ccc(F)cc2F)cc2cnc(N[C@H](C)CO)nc21` the value was 1 to 100 nM.
For `C[C@@H](O)Cn1c(=O)c(Oc2ccc(F)cc2F)cc2cnc(NC3CC3)nc21` the value was 1 to 100 nM.
For the compound `C[C@@H](O)Cn1c(=O)c(Oc2ccc(F)cc2F)cc2cnc(NCC(C)(C)C)nc21`, the IC50 lay within 1 to 100 nM.
For `C[C@@H](O)Cn1c(=O)c(Oc2ccc(F)cc2F)cc2cnc(NC3CCOCC3)nc21` the value was 1 to 100 nM; for `CC[C@@H](C)Nc1ncc2cc(Oc3ccc(F)cc3F)c(=O)n(C[C@H](C)O)c2n1`, 1 to 100 nM.
In turn, `CC(C)Nc1ncc2cc(Oc3ccc(F)cc3F)c(=O)n(C[C@@H](C)O)c2n1` registered a concentration for half-maximal inhibition (IC50) of 1 to 100 nM.
For `CC[C@H](C)Nc1ncc2cc(Oc3ccc(F)cc3F)c(=O)n(C[C@@H](C)O)c2n1` the value was 1 to 100 nM; for `C[C@H](O)Cn1c(=O)c(Oc2ccc(F)cc2F)cc2cnc(NC(CCO)CCO)nc21`, 1 to 100 nM.
For `CNc1ncc2cc(Oc3ccc(F)cc3F)c(=O)n(C[C@@H](C)O)c2n1` the value was 1 to 100 nM; for `COC[C@H](C)Nc1ncc2cc(Oc3ccc(F)cc3F)c(=O)n(C(CCO)CCO)c2n1`, 1 to 100 nM; for `C[C@@H](O)Cn1c(=O)c(Oc2ccc(F)cc2F)cc2cnc(N[C@@H](C)CO)nc21`, 1 to 100 nM.
`C[C@H](O)Cn1c(=O)c(Oc2ccc(F)cc2F)cc2cnc(N[C@@H](CO)CCO)nc21`: the IC50 fell in the range of 1 to 100 nM.
For `C[C@H](O)Cn1c(=O)c(Oc2ccc(F)cc2F)cc2cnc(NC(C)(C)CO)nc21` the value was 1 to 100 nM.
